From patent publication US8592470B2 (Eisai R&D Management Co., Ltd., priority 2012, dated 2013)

What was measured:
[1] = target: T1, endothelin receptor A (EDNRA) (Homo sapiens, UniProt P25101); test: Suppression of endothelin-induced Ca2+ elevation in EDNRA/293 cells; assay type: cell-based; settings: 0.03, 0.1 or 0.3 nM endothelin, FIG. 2 and FIG. 3
T1 construct: The protein coding region of human derived EDNRA (gene number NM_001957.2) was transduced; expressed in transfected cells
T1 sequence (P25101 21-427): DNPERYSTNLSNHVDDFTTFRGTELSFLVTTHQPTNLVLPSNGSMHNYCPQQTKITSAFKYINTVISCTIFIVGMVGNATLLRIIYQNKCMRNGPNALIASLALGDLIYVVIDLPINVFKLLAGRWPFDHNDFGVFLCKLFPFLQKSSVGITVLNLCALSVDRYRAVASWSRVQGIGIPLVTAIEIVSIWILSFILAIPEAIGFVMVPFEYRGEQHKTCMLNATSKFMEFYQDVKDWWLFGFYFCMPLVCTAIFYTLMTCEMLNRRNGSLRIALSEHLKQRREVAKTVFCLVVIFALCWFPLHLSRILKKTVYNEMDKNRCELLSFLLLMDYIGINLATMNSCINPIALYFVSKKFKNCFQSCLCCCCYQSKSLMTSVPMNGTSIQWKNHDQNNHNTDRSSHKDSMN
Text: The protein coding region of human derived EDNRA (gene number NM_001957.2) was transduced into HEK-293 (Human Embryonic Kidney, ATCC No. CRL-1573) cells with a murine leukemia retrovirus vector, to prepare a cell line stably expressing EDNRA (EDNRA/293 cells). DMEM (Dulbecco's Modified Eagle Medium) supplemented with 10% fetal bovine serum and penicillin and streptomycin was used as the culture medium.
One day before measurement, the EDNRA/293 cells were inoculated on a 384-well plate at 5000 cells/well. On the day of measurement, a fluorescent reagent for calcium measurement (Calcium4, Molecular Device) dissolved in Hanks balanced buffer solution was added to each well, and allowed standing for about 1 hour.
Endothelin, an EDNRA ligand (activator) was applied to the wells not treated with the specimens, and the resulting activation (calcium elevation) reaction was detected by a measuring instrument (FDSS7000, Hamamatsu Photonics) to obtain a dose-dependent activation reaction as shown in FIG. 1. At doses of 1 nM or more, the activation reaction became almost saturated. For this reason, the doses of endothelin used for detection in the suppression reactions below were set at 0.03, 0.1 or 0.3 nM.

CYP1A2 [2] = target: T2, CYP1A2 (Homo sapiens, UniProt P05177); test: Time-dependent CYP inhibition (Method 1), human hepatic microsome; assay type: in vitro ADME; settings: 30 min pre-incubation at 37° C., phenacetin, average, n = 2
T2 construct: human hepatic microsomal fraction containing CYP; from tissue; host or cells: human liver microsomes
T2 sequence (P05177 1-516): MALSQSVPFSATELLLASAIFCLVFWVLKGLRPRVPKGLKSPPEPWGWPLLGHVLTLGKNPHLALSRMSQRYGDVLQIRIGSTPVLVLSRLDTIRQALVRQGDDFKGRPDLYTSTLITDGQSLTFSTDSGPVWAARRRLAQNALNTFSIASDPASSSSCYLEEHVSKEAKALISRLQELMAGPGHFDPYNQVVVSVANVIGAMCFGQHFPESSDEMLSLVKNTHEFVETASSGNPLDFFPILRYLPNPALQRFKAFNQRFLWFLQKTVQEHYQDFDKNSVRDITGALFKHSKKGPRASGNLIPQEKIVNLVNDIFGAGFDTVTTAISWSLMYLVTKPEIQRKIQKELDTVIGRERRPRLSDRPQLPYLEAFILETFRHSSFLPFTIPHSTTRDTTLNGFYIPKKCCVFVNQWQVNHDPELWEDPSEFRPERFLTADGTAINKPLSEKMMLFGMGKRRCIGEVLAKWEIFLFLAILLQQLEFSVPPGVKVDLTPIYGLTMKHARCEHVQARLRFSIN
Protocol: (§1) Competitive inhibition of CYP was also tested as Method 2. […] The test substance was added to an enzyme solution (containing human hepatic microsome (0.2 mg/mL), 100 mM Kpi and 0.1 mM EDTA), and pre-incubated for 30 minutes at 37° C. in the presence of or absence of the coenzyme. The final concentration of the test substance was set at 0.1, 0.2, 0.4, 0.5, 1, 2, 10 or 50 μM. A NADPH generating system (60 mM MgCl2 solution containing 3.6 mM β-NADP^+, 90 mM glucose-6-phosphate and 1 Unit/mL glucose-6-phosphate dehydrogenase, incubated for 5 minutes to generate NADPH) was used as the coenzyme. After pre-incubation, part of the reaction solution was collected, diluted 10 times by mixing with a model substrate solution and the NADPH generating system, and then incubated for 10 minutes at 37° C. An equal amount of a mixed solution of acetonitrile and methanol (1:1, containing 0.05 μM dextrophan or 0.05 μM propranolol as an internal standard) was added to terminate the reaction, and metabolites of the model substrate in the reaction solution were measured by LC-MS/MS. A similar test was also performed with no test substance added as a control test. The ratio relative to the amount of model substrate metabolites in the control test was given as residual activity. The ratio of residual activity in the presence of NADPH relative to residual activity in the absence of NADPH was evaluated, and the ratio of 80% or less was defined “+”, while the ratio of above 80% was defined as “−”. [table]

CYP2C9 [3] = target: T3, CYP2C9 (Homo sapiens, UniProt P11712); test: as above; assay type: in vitro ADME; settings: 30 min pre-incubation at 37° C., tolbutamide, average, n = 2
T3 construct: human hepatic microsomal fraction containing CYP; from tissue; host or cells: human liver microsomes
T3 sequence (P11712 whole entry): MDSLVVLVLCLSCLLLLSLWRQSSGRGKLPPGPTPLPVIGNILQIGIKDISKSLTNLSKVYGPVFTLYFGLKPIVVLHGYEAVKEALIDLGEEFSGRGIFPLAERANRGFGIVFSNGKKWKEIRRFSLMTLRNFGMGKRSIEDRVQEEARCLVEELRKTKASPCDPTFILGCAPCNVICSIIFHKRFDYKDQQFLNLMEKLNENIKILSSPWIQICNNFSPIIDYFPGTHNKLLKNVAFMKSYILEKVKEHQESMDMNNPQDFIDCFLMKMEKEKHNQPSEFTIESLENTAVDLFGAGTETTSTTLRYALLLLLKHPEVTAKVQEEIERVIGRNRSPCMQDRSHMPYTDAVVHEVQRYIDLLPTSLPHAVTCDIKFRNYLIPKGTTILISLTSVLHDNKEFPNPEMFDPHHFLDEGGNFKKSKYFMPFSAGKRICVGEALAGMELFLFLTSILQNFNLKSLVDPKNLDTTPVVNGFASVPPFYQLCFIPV
Protocol: as §1

CYP2D6 [4] = target: T4, CYP2D6 (Homo sapiens, UniProt P10635); test: as above; assay type: in vitro ADME; settings: 30 min pre-incubation at 37° C., bufuralol, average, n = 2
T4 construct: human hepatic microsomal fraction containing CYP; from tissue; host or cells: human liver microsomes
T4 sequence (P10635 whole entry): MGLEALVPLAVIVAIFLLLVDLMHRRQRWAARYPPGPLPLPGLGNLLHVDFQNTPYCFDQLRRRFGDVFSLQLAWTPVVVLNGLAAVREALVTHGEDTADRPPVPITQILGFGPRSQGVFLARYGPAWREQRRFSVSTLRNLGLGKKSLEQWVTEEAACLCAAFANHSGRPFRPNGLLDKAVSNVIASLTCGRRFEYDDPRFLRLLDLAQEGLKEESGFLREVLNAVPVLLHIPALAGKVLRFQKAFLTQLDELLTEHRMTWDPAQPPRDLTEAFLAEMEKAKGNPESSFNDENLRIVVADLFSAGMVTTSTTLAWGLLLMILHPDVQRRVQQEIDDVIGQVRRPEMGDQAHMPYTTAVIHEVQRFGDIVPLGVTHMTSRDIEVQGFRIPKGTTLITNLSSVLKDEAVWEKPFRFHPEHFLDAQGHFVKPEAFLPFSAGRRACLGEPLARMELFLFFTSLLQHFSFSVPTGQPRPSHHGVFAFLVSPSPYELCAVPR
Protocol: as §1

CYP3A4 [5] = target: T5, CYP3A4 (Homo sapiens, UniProt P08684); test: as above; assay type: in vitro ADME; settings: 30 min pre-incubation at 37° C., midazolam, average, n = 2
T5 construct: human hepatic microsomal fraction containing CYP; from tissue; host or cells: human liver microsomes
T5 sequence (P08684 whole entry): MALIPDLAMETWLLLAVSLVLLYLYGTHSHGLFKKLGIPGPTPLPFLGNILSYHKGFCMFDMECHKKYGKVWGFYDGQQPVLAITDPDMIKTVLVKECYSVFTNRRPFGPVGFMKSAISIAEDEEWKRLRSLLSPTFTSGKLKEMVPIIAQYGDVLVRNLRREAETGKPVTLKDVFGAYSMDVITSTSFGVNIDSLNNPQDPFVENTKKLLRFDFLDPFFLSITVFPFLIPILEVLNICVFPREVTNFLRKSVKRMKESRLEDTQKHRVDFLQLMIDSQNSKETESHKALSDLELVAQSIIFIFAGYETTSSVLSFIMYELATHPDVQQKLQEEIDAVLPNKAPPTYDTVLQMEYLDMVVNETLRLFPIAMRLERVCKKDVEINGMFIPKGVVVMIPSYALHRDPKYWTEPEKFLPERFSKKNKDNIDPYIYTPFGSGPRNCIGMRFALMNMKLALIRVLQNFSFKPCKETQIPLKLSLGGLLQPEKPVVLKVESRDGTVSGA
Protocol: as §1

CYP2C19 [6] = target: T6, CYP2C19 (Homo sapiens, UniProt P33261); test: as above; assay type: in vitro ADME; settings: 30 min pre-incubation at 37° C., S-mephenytoin, average, n = 2
T6 construct: human hepatic microsomal fraction containing CYP; from tissue; host or cells: human liver microsomes
T6 sequence (P33261 whole entry): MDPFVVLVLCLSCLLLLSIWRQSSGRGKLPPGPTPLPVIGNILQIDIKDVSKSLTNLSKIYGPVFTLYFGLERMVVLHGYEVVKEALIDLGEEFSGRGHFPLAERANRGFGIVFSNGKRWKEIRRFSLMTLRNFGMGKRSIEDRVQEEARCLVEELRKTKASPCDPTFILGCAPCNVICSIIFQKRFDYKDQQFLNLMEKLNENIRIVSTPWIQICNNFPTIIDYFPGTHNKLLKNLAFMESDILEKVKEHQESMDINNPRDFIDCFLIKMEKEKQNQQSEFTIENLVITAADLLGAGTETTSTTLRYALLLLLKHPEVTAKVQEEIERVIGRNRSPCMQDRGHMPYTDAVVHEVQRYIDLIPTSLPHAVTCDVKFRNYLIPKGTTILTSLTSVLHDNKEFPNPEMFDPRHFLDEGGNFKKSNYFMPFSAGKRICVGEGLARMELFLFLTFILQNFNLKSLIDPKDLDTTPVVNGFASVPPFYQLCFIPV

CYP1A2 [7] = target: T2, CYP1A2; test: Competitive CYP inhibition (Method 2), human hepatic microsome; assay type: in vitro ADME; settings: phenacetin 10 μM, n = 2, read-out: IC50 score, CYP1A2
Protocol: (§2) The test substance was added at a final concentration of 1 or 10 μM to an enzyme solution (containing human hepatic microsome (0.2 mg/mL), 100 mM Kpi and 0.1 mM EDTA) containing a model substrate solution, and incubated for 10 minutes at 37° C. in the presence of an NADPH generating system. An equal amount of a mixed solution of acetonitrile and methanol (1:1, containing 0.05 μM dextrophan or 0.05 μM propranolol as an internal standard) was added to terminate the reaction, and metabolites of the model substrate in the reaction solution were measured by LC-MS/MS. A similar test was performed without addition of the test substance as a control test. The inhibition rate was determined from the amounts of model substrate metabolites with and without addition of the test substance at each test substance concentration, and the IC50 value was calculated from the inhibition rate (calculation method in accordance with Xenobiotica, 1999, 29(1), 53-75). […] [table]

CYP2C19 [8] = target: T6, CYP2C19; test: as above; assay type: in vitro ADME; settings: S-mephenytoin 40 μM, n = 2, read-out: IC50 score, CYP2C19
Protocol: as §2

CYP2C9 [9] = target: T3, CYP2C9; test: as above; assay type: in vitro ADME; settings: human liver microsomes, probe tolbutamide 100 μM, n = 2, read-out: IC50 score, CYP2C9
Protocol: as §2

CYP2D6 [10] = target: T4, CYP2D6; test: as above; assay type: in vitro ADME; settings: bufuralol 10 μM, n = 2, read-out: IC50 score, CYP2D6
Protocol: as §2

CYP3A4 [11] = target: T5, CYP3A4; test: as above; assay type: in vitro ADME; settings: midazolam 3 μM, n = 2, read-out: IC50 score, CYP3A4
Protocol: The inhibition rate was determined from the amounts of model substrate metabolites with and without addition of the test substance at each test substance concentration, and the IC50 value was calculated from the inhibition rate (calculation method in accordance with Xenobiotica, 1999, 29(1), 53-75).

For `Cc1cc2c(cc1CC(=O)c1sccc1S(=O)(=O)Nc1onc(C)c1Cl)COC2` [Example 1, N-(4-chloro-3-methyl-1,2-oxazol-5-yl)-2-[2-(6-methyl-1,3-dihydro-2-benzofuran-5-yl)acetyl]thiophene-3-sulfonamide], the “Suppression of activation (calcium elevation) reaction by endothelin” value [1] was “suppressed the activation reaction”, the “Ratio of residual CYP1A2 activity in presence of NADPH relative to absence of NADPH” value (CYP1A2 [2]; test substance 10 μM) was “− (the ratio of above 80% was defined as “−”)” and the “Ratio of residual CYP1A2 activity in presence of NADPH relative to absence of NADPH” value (CYP1A2 [2]; test substance 50 μM) was “− (the ratio of above 80% was defined as “−”)”. The “Ratio of residual CYP2C9 activity in presence of NADPH relative to absence of NADPH” value (CYP2C9 [3]; test substance 10 μM) was “− (the ratio of above 80% was defined as “−”)”, the “Ratio of residual CYP2C9 activity in presence of NADPH relative to absence of NADPH” value (CYP2C9 [3]; test substance 50 μM) was “− (the ratio of above 80% was defined as “−”)” and the “Ratio of residual CYP2D6 activity in presence of NADPH relative to absence of NADPH” value (CYP2D6 [4]; test substance 10 μM) was “− (the ratio of above 80% was defined as “−”)”. The “Ratio of residual CYP2D6 activity in presence of NADPH relative to absence of NADPH” value (CYP2D6 [4]; test substance 50 μM) was “− (the ratio of above 80% was defined as “−”)”, the “Ratio of residual CYP3A4 activity in presence of NADPH relative to absence of NADPH” value (CYP3A4 [5]; test substance 10 μM) was “− (the ratio of above 80% was defined as “−”)” and the “Ratio of residual CYP3A4 activity in presence of NADPH relative to absence of NADPH” value (CYP3A4 [5]; test substance 50 μM) was “+ (the ratio of 80% or less was defined “+”)”. For the same compound, the “Ratio of residual CYP2C19 activity in presence of NADPH relative to absence of NADPH” value (CYP2C19 [6]; test substance 10 μM) was “− (the ratio of above 80% was defined as “−”)”, the “Ratio of residual CYP2C19 activity in presence of NADPH relative to absence of NADPH” value (CYP2C19 [6]; test substance 50 μM) was “− (the ratio of above 80% was defined as “−”)” and the IC50 (CYP1A2 [7]) was greater than 10 µM. It also gave an IC50 (CYP2C19 [8]) greater than 10 µM, an IC50 at 10 min (CYP2C9 [9]) of less than 1 µM and an IC50 (CYP2D6 [10]) greater than 10 µM. For the same compound, the IC50 (CYP3A4 [11]) was greater than 10 µM.

`Cc1cc2c(cc1CC(=O)c1sccc1S(=O)(=O)Nc1onc(C)c1Cl)OCO2` [Sitaxentan, N-(4-chloro-3-methyl-1,2-oxazol-5-yl)-2-[2-(6-methyl-2H-1,3-benzodioxol-5-yl)acetyl]thiophene-3-sulfonamide, reference compound] was tested, and the “Suppression of activation (calcium elevation) reaction by endothelin” value [1] was “suppressed the activation reaction”, the IC50 (CYP1A2 [7]) was greater than 10 µM and the IC50 (CYP2C19 [8]) was 1 to 10 µM. The IC50 at 10 min (CYP2C9 [9]) was less than 1 µM and the IC50 (CYP2D6 [10]) was greater than 10 µM.
